From US20240245673A1, “Papain-like protease (PLpro) inhibitors” (Pfizer Inc., priority 2022, published 2024)

molecular target: SARS-CoV-2 Papain like protease (PLpro) (Severe acute respiratory syndrome coronavirus 2 (2019-nCoV) (SARS-CoV-2), UniProt P0DTD1); assay: Papain Like Protease (PLpro) biochemical assay with profluorogenic substrate Z-RLRGG-AMC; details: IC50 (μM), SARS-CoV-2 PLpro 6.25 nM, 25 μM Z-RLRGG-AMC substrate, 60 minute reaction

`Cc1ccc(N2CC3CC(C2)N3C)cc1C(=O)NC1(c2cc(-c3cnn(C)c3)nc3ccccc23)CC1` [Example 290, 2-methyl-N-(1-(2-(1-methyl-1H-pyrazol-4-yl)quinolin-4-yl)cyclopropyl)-5-(6-methyl-3,6-diazabicyclo[3.1.1]heptan-3-yl)benzamide] was tested, and the IC50 was 0.001 µM.

same assay, conditions: SARS-CoV-2 PLpro 6.25 nM, 25 μM Z-RLRGG-AMC substrate, 60 minute reaction; read-out: IC50

Point of comparison: `Cc1ccccc1C(=O)NC(C)c1cc(-c2ccc(N)nc2)nc2ccccc12` (stereo not shown) [Example 127, N-{1-[2-(6-aminopyridin-3-yl)quinolin-4-yl]ethyl}-2-methylbenzamide], IC50 1.82 µM. Against it:
- Cc1cc(COCc2cscn2)ccc1C(=O)NC1(c2cc(-c3cc(C(=O)N(C)C)n[nH]3)nc3ccccc23)CC1 [Example 343, N,N-dimethyl-5-(4-(1-(2-methyl-4-((thiazol-4-ylmethoxy)methyl)benzamido)cyclopropyl)quinolin-2-yl)-1H-pyrazole-3-carboxamide] — lower, < 0.001 µM
- Cc1cc(C(C)(C)NC(=O)c2cscn2)ccc1C(=O)N[C@H](C)c1cc(-c2cnn(C)c2)nc2ccccc12 [Example 214, (R)-N-(2-(3-methyl-4-((1-(2-(1-methyl-1H-pyrazol-4-yl)quinolin-4-yl)ethyl)carbamoyl)phenyl)propan-2-yl)thiazole-4-carboxamide] — 11-fold lower, 0.169 µM
- Cc1cc(C(=O)N(C)Cc2cscn2)ccc1C(=O)N[C@H](C)c1cc(-c2cnn(C)c2)nc2ccccc12 [Example 243] — 24-fold lower, 0.077 µM
- Cc1ccccc1C(=O)NC(C)c1cc(NCc2cnco2)nc2ccccc12 (stereo not shown) [Example 139, 2-methyl-N-[1-(2-{[(1,3-oxazol-5-yl)methyl]amino}-quinolin-4-yl)ethyl]benzamide] — 2.7-fold lower, 0.675 µM
- Cc1ccc(N2CCN(C)CC2)cc1C(=O)NC1(c2cc(-c3ccc(C(=O)N(C)C)[nH]3)cc3ccccc23)CC1 [Example 292, N,N-dimethyl-5-(4-(1-(2-methyl-5-(4-methylpiperazin-1-yl)benzamido)cyclopropyl)naphthalen-2-yl)-1H-pyrrole-2-carboxamide] — lower, < 0.001 µM
- Cc1ccccc1C(=O)NC(C)c1cc(-c2[nH]ncc2C)nc2ccccc12 (stereo not shown) [Example 102] — 2-fold lower, 0.904 µM
- Cc1ccc(N2CCCC(N)C2=O)cc1C(=O)N[C@H](C)c1cc(-c2cnn(C)c2)nc2ccccc12 (stereo partly shown) [Example 235] — 20-fold lower, 0.091 µM
- Cc1ccccc1C(=O)NC(C)c1cc(-c2cnn(CC(F)F)c2)nc2ccccc12 (stereo not shown) [Example 120, N-(1-{2-[1-(2,2-difluoroethyl)-1H-pyrazol-4-yl]quinolin-4-yl}ethyl)-2-methylbenzamide] — 5.3-fold lower, 0.345 µM
- COC[C@@H](OCc1cscn1)c1ccc(C(=O)N[C@H](C)c2cc(-c3cnn(C)c3)nc3ccccc23)c(C)c1 (single isomer, unassigned) [Example 332, 4-((R*)-2-methoxy-1-(thiazol-4-ylmethoxy)ethyl)-2-methyl-N-((R)-1-(2-(1-methyl-1H-pyrazol-4-yl)quinolin-4-yl)ethyl)benzamide] — 910-fold lower, 0.002 µM
- Cc1cc(C(C)OCc2cscn2)ncc1C(=O)N[C@H](C)c1cc(-c2cnn(C)c2)nc2ccccc12 (stereo partly drawn) [Example 321, 4-methyl-N—((R)-1-(2-(1-methyl-1H-pyrazol-4-yl)quinolin-4-yl)ethyl)-6-(1-(thiazol-4-ylmethoxy)ethyl)nicotinamide] — 610-fold lower, 0.003 µM
- Cc1ccccc1C(=O)NC(C)c1cc(-c2cnn(C)c2C)nc2ccccc12 (stereo not shown) [Example 129, N-{1-[2-(1,5-dimethyl-1H-pyrazol-4-yl)quinolin-4-yl]ethyl}-2-methylbenzamide] — 2.7-fold lower, 0.666 µM
- Cc1ccc(N2CC3CC2CN3)cc1C(=O)N[C@H](C)c1cc(-c2cnn(C)c2)nc2ccccc12 (stereo partly shown) [Example 255] — 96-fold lower, 0.019 µM
- Cc1ccc(NC(=O)[C@H]2CCCCN2)cc1C(=O)NC(C)c1cc(-c2cn[nH]c2)cc2ccccc12 (single isomer, unassigned) [Example 53, (R)—N-(3-(((R*)-1-(3-(1H-pyrazol-4-yl)naphthalen-1-yl)ethyl)carbamoyl)-4-methylphenyl)piperidine-2-carboxamide] — 3.8-fold lower, 0.478 µM
- Cc1cc(CN)ccc1C(=O)NC(C)c1cc(-c2cnn(C)c2)cc2ccccc12 (stereo not shown) [Example 5, 4-(aminomethyl)-2-methyl-N-(1-(3-(1-methyl-1H-pyrazol-4-yl)naphthalen-1-yl)ethyl)benzamide] — 21-fold lower, 0.087 µM
